According to the supplement of paper PMC11451515:

Key:
Conditions in all cases: 48 h
NOMO1 [1] = assay: cell viability relative to DMSO control; higher = less cytotoxic
In short: (§1)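 Cells were incubated for 48 h at 37°C before CellTiter-Glo One luminescence was read. The cells were NOMO1 or SEM (500 cells/well) or P12-Ichikawa (1000 cells/well) leukemia cells, adapted for at least four passages in each medium and seeded in 1536-well plates (5 μl). Dosing used library compounds in DMSO applied by pin over 11 threefold points, 47 μM to 0.79 nM. Viability is the per-plate percentage of DMSO wells, with cell-free wells as background.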

P12-Ichikawa [2] = assay: as above
In short: as §1

SEM cells [3] = assay: as above
In short: as §1

NOMO1 [4] = assay: AUC of viability dose-response curve (% viability x log10 dose units); higher = less sensitive
In short: (§2)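 Library compounds in DMSO were applied for 48 h at 37°C at 11 threefold doses (47 μM to 0.79 nM) to medium-adapted leukemia cells in 1536-well plates holding 500 or 1000 cells/well. Luminescence from CellTiter-Glo One was normalised plate by plate against DMSO and cell-free wells. Area under the curve came from trapezoidal integration of a log-logistic fit, after scaling curves that rose above full viability and discarding those that failed quality control. The fit had four parameters and used log10 doses.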

P12-Ichikawa [5] = assay: as above
In short: as §2

SEM cells [6] = assay: as above
In short: as §2

CN(C/C=C/C#CC(C)(C)C)Cc1cccc2ccccc12
cell viability [%]
Conditions | NOMO1 [1] | P12-Ichikawa [2] | SEM cells [3]
HPLM + 10% dialyzed FBS, 0.000781 µM | 93.8 | 96.2 | 81.5
HPLM + 10% dialyzed FBS, 0.00234 µM | 125 | 103 | 84.7
HPLM + 10% dialyzed FBS, 0.00702 µM | 104 | 101 | 93
HPLM + 10% dialyzed FBS, 0.0211 µM | 94.1 | 104 | 92.4
HPLM + 10% dialyzed FBS, 0.0632 µM | 108 | 105 | 96.3
HPLM + 10% dialyzed FBS, 0.19 µM | 104 | 103 | 101
HPLM + 10% dialyzed FBS, 0.569 µM | 108 | 106 | 114
HPLM + 10% dialyzed FBS, 1.71 µM | 96.4 | 90.6 | 94
HPLM + 10% dialyzed FBS, 5.12 µM | 98 | 103 | 107
HPLM + 10% dialyzed FBS, 15.4 µM | 92.4 | 105 | 100
HPLM + 10% dialyzed FBS, 46.1 µM | 106 | 107 | 98.3
RPMI 5 mM glucose + 10% FBS, 0.000781 µM | 86.4 | 90.6 | 72.2
RPMI 5 mM glucose + 10% FBS, 0.00234 µM | 96.7 | 93.1 | 99.6
RPMI 5 mM glucose + 10% FBS, 0.00702 µM | 86.2 | 100 | 86.7
RPMI 5 mM glucose + 10% FBS, 0.0211 µM | 85.1 | 93.8 | 94.2
RPMI 5 mM glucose + 10% FBS, 0.0632 µM | 93.2 | 100 | 93.3
RPMI 5 mM glucose + 10% FBS, 0.19 µM | 91.8 | 105 | 101
RPMI 5 mM glucose + 10% FBS, 0.569 µM | 103 | 101 | 105
RPMI 5 mM glucose + 10% FBS, 1.71 µM | 87.2 | 101 | 105
RPMI 5 mM glucose + 10% FBS, 5.12 µM | 90 | 98.9 | 95
RPMI 5 mM glucose + 10% FBS, 15.4 µM | 94.5 | 102 | 76.5
RPMI 5 mM glucose + 10% FBS, 46.1 µM | 100 | 94.5 | 99.4
RPMI 5 mM glucose + 10% dialyzed FBS, 0.000781 µM | 87.9 | 92.3 | 81
RPMI 5 mM glucose + 10% dialyzed FBS, 0.00234 µM | 82.4 | 94.4 | 90.4
RPMI 5 mM glucose + 10% dialyzed FBS, 0.00702 µM | 95.8 | 89.7 | 85.9
RPMI 5 mM glucose + 10% dialyzed FBS, 0.0211 µM | 91.6 | 92.3 | 98.9
RPMI 5 mM glucose + 10% dialyzed FBS, 0.0632 µM | 107 | 99.5 | 110
RPMI 5 mM glucose + 10% dialyzed FBS, 0.19 µM | 90.1 | 90.8 | 95.6
RPMI 5 mM glucose + 10% dialyzed FBS, 0.569 µM | 93.9 | 90.9 | 96.6
RPMI 5 mM glucose + 10% dialyzed FBS, 1.71 µM | 91.6 | 96.5 | 104
RPMI 5 mM glucose + 10% dialyzed FBS, 5.12 µM | 90.2 | 91.8 | 117
RPMI 5 mM glucose + 10% dialyzed FBS, 15.4 µM | 98.8 | 91.3 | 104
RPMI 5 mM glucose + 10% dialyzed FBS, 46.1 µM | 109 | 93.8 | 95

AUC of viability dose-response curve
Conditions | NOMO1 [4] | P12-Ichikawa [5] | SEM cells [6]
HPLM + 10% dialyzed FBS | 458 | 475 | 452
RPMI 5 mM glucose + 10% FBS | 440 | 468 | 450
RPMI 5 mM glucose + 10% dialyzed FBS | 447 | 444 | 455

CC(=O)N1CCN(c2ccc(OCc3nn(C)c(C)c3-c3cccc4c(CCCOc5cccc6ccccc56)c(C(=O)O)n(Cc5cccnc5)c34)cc2)CC1
cell viability [%]
Conditions | NOMO1 [1] | P12-Ichikawa [2] | SEM cells [3]
HPLM + 10% dialyzed FBS, 0.000781 µM | 107 | 108 | 92.6
HPLM + 10% dialyzed FBS, 0.00234 µM | 130 | 116 | 91.9
HPLM + 10% dialyzed FBS, 0.00702 µM | 119 | 123 | 106
HPLM + 10% dialyzed FBS, 0.0211 µM | 117 | 122 | 112
HPLM + 10% dialyzed FBS, 0.0632 µM | 138 | 120 | 107
HPLM + 10% dialyzed FBS, 0.19 µM | 128 | 119 | 126
HPLM + 10% dialyzed FBS, 0.569 µM | 126 | 124 | 115
HPLM + 10% dialyzed FBS, 1.71 µM | 85.2 | 122 | 120
HPLM + 10% dialyzed FBS, 5.12 µM | 32 | 108 | 122
HPLM + 10% dialyzed FBS, 15.4 µM | 23.9 | 31.8 | 108
HPLM + 10% dialyzed FBS, 46.1 µM | 22.7 | 9.79 | 108
RPMI 5 mM glucose + 10% FBS, 0.000781 µM | 110 | 98.4 | 87.6
RPMI 5 mM glucose + 10% FBS, 0.00234 µM | 125 | 118 | 78
RPMI 5 mM glucose + 10% FBS, 0.00702 µM | 120 | 123 | 86.4
RPMI 5 mM glucose + 10% FBS, 0.0211 µM | 124 | 123 | 93.6
RPMI 5 mM glucose + 10% FBS, 0.0632 µM | 130 | 124 | 81.8
RPMI 5 mM glucose + 10% FBS, 0.19 µM | 129 | 125 | 103
RPMI 5 mM glucose + 10% FBS, 0.569 µM | 127 | 137 | 108
RPMI 5 mM glucose + 10% FBS, 1.71 µM | 67 | 135 | 115
RPMI 5 mM glucose + 10% FBS, 5.12 µM | 22.8 | 123 | 105
RPMI 5 mM glucose + 10% FBS, 15.4 µM | 19.6 | 28.2 | 104
RPMI 5 mM glucose + 10% FBS, 46.1 µM | 16 | 11 | 84.7
RPMI 5 mM glucose + 10% dialyzed FBS, 0.000781 µM | 118 | 107 | 101
RPMI 5 mM glucose + 10% dialyzed FBS, 0.00234 µM | 125 | 124 | 85.1
RPMI 5 mM glucose + 10% dialyzed FBS, 0.00702 µM | 130 | 121 | 115
RPMI 5 mM glucose + 10% dialyzed FBS, 0.0211 µM | 131 | 128 | 112
RPMI 5 mM glucose + 10% dialyzed FBS, 0.0632 µM | 136 | 128 | 119
RPMI 5 mM glucose + 10% dialyzed FBS, 0.19 µM | 139 | 123 | 127
RPMI 5 mM glucose + 10% dialyzed FBS, 0.569 µM | 129 | 136 | 112
RPMI 5 mM glucose + 10% dialyzed FBS, 1.71 µM | 123 | 129 | 115
RPMI 5 mM glucose + 10% dialyzed FBS, 5.12 µM | 24.9 | 134 | 109
RPMI 5 mM glucose + 10% dialyzed FBS, 15.4 µM | 19.5 | 91.1 | 113
RPMI 5 mM glucose + 10% dialyzed FBS, 46.1 µM | 21.2 | 25.5 | 104

AUC of viability dose-response curve
Conditions | NOMO1 [4] | P12-Ichikawa [5] | SEM cells [6]
HPLM + 10% dialyzed FBS | 368 | 416 | 457
RPMI 5 mM glucose + 10% FBS | 355 | 418 | 440
RPMI 5 mM glucose + 10% dialyzed FBS | 376 | 445 | 464
